Laboratory results reported in publication PMC4468182, “Murine Efficacy and Pharmacokinetic Evaluation of the Flaviviral NS5 Capping Enzyme 2-Thioxothiazolidin-4-One Inhibitor BG-323” (PLoS ONE, 2015).
Several values for one entry are separate records, joined by “and”; a condition that tells them apart may be missing. Equal values may be shown once.

How the values were obtained:
[1] = In vivo toxicity assay (mouse weight); design: species or system ICR mice; conditions: 50 mg/kg IP
Procedure: Two groups of 3 mice each were either injected with 150 μL of 50 mg/kg BG-323 (synthesized by Brian McNaughton’s group at CSU [15]) formulated in 10% DMSO, 15% solutol and 75% saline or DMSO vehicle in the same formulation. Mice were weighed daily for 7 days and percent of maximum weight loss was calculated.

CYP P450 isoform 2C9 = CYP P450 isoform 2C9 (Homo sapiens, UniProt P11712); assay: CYP P450 binding assay, isoform 2C9; conditions: 10 μM, human liver microsomes, diclofenac substrate, vs sulfaphenazole positive control
CYP P450 isoform 2C9, sequence (P11712 whole entry, canonical isoform): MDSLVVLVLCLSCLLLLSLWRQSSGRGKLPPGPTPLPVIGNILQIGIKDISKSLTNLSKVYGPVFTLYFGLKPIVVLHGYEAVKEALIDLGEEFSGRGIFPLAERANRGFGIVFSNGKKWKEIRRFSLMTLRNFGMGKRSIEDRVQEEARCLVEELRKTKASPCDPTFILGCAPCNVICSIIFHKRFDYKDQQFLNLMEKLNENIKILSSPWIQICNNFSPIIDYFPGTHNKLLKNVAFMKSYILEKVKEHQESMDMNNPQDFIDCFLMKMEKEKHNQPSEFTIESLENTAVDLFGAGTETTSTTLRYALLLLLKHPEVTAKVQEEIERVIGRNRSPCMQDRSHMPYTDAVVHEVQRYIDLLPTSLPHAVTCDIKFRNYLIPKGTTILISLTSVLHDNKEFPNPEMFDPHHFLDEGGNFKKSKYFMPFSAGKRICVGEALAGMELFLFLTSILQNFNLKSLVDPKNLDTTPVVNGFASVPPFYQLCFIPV

[2] = In vivo half-life (T1/2), serum LC/MS/MS
CYP P450 isoform 3A4 = CYP P450 isoform 3A4 (Homo sapiens, UniProt P08684); assay: CYP P450 binding assay, isoform 3A4; conditions: 10 μM, human liver microsomes, midazolam substrate, vs ketoconazole positive control
CYP P450 isoform 3A4, sequence (P08684 whole entry, canonical isoform): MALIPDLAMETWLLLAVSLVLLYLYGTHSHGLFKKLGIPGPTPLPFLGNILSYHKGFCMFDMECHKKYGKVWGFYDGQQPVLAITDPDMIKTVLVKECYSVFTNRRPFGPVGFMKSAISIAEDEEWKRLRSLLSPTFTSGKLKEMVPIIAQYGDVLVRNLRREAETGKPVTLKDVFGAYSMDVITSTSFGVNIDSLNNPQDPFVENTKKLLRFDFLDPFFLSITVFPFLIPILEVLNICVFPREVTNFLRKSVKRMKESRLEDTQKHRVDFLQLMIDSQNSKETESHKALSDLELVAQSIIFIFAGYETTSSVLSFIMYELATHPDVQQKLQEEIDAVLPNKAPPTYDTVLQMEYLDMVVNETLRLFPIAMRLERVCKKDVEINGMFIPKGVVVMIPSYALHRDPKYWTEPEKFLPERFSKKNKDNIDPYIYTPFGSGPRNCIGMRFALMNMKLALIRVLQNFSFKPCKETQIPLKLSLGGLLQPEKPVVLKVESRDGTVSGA

Yellow fever viruses = conditions: cited from earlier work
[3] = Plasma protein binding assay (Rapid Equilibrium Dialysis); assay type: in vitro ADME; conditions: human plasma, 5 μM, pH 7.4, 37°C, 4 hr
WNV NY99 = assay: In vivo antiviral efficacy in WNV NY99-challenged mice; design: species or system ICR mice; key to Clinical score, day 1 post-challenge / Clinical score, day 2 post-challenge / Clinical score, day 3 post-challenge / Clinical score, day 4 post-challenge / Clinical score, day 5 post-challenge / Clinical score, day 6 post-challenge / Clinical score, day 7 post-challenge / Clinical score, day 8 post-challenge / Clinical score, day 9 post-challenge / Clinical score, day 10 post-challenge / Clinical score, day 11 post-challenge / Clinical score, day 12 post-challenge / Clinical score, day 13 post-challenge / Clinical score, day 14 post-challenge: 0 is normal; 1 is questionable illness; 2 is distinct mild illness; 3 is distinct disease; 4 is serious disease/moribund
[4] = tested on: West Nile virus (NY99 strain); assay: In vitro West Nile virus efficacy assay (plaque assay); assay type: cell-based
[5] = Metabolic stability assay in liver microsomes; conditions: 1 μM, human liver microsomes 0.5 mg/mL, NADPH
[6] = tested on: Powassan virus (LB strain); assay type: cell-based
Caco-2 cells = assay: Caco-2 cell permeability assay; conditions: 5 μM, Caco-2, pH 7.4, 120 min
[7] = tested on: West Nile virus (subtype Kunjin); design: method as in PMID 22674988; conditions: 75 μM, cell culture, previously tested; cited from earlier work
WNV (Kunjin subtype) = assay: BG-323 resistance study, six rounds of infection; assay type: cell-based, West Nile virus; conditions: 75 μM BG-323, BHK21 cells, 100 PFU Kunjin per round, six 3-day rounds
Procedure: On day one, BHK-21 cells (ATCC) were seeded in 12-well plates at 50,000 cells/mL and allowed to attach overnight. The following day, each of 9 wells was infected with 100 PFU WNV (Kunjin subtype) in complete DMEM (cDMEM) and 3 uninfected control wells received cDMEM only. Cells were incubated with media for 2 hr at 37°C to allow cells to become infected. After 2 hr, infected cDMEM was replaced with new media containing DMSO or 75 μM BG-323. Each condition was run in triplicate. Following DMSO or drug administration, cells were incubated at 37°C. On day 3, samples were collected and stored at -80°C. Viral titers were calculated by plaque assay as previously described on one tube of the day 3 samples for each replicate. 100 PFU from an unthawed day 3 sample was used to infect fresh BHK 21 cells to start the next round of infection. The three-day cycle was considered one round of infection and the study continued for 6 rounds. The infectious input of Kunjin virus and the concentrations (75 μM) of BG-323 were held constant throughout the study.

[8] = mice, 0.38 mL bolus of 5 mg/mL, serum

Compound: CC(C)(C)c1ccc(/C=C2/SC(=S)N(CCC(=O)O)C2=O)cc1 [BG-323, (E)-{3-[5-94-tert-butylbenzylidene0-4-oxo-2-thioxo-1,3-thiazolidin-3-yl]propanoic acid}]
- gross toxicity in mice ([1]; 7 days): does not appear to be grossly toxic
- average weight loss percentage (maximum weight loss) ([1]; mice, weights monitored 7 days): 3.5%
- percent inhibition of CYP 2C9 (CYP P450 isoform 2C9): insignificant compared to positive controls
- T1/2 in mice ([2]; 0.38 mL bolus of 5 mg/mL, serum): 1.75 h
- Initial concentration (C0) [2, 8]: 19275 ng/mL
- elimination rate constant (Kel) [2, 8]: 0.395 h⁻¹
- average serum concentration five min after administration ([2]; mice, 0.38 mL of 5 mg/mL, 5 min): ~21,000 ng/mL
- percent inhibition of CYP 3A4 (CYP P450 isoform 3A4): insignificant compared to positive controls
- log reduction of titers, Yellow fever virus (Yellow fever viruses): ~1 log
- percent bound to plasma proteins [3]: 99.9%
- average viral titers in sera on day three (WNV NY99; 500 PFU WNV NY99 footpad, 50 mg/kg IP BID 5 days, day 3 post challenge): 1.6x10^5 PFU/mL
- Clinical score, day 1 post-challenge (WNV NY99; individual WNV NY99-challenged mice, 50 mg/kg IP BID 5 days, day 1): 0
- Clinical score, day 2 post-challenge (WNV NY99; individual WNV NY99-challenged mice, 50 mg/kg IP BID 5 days, day 2): 0
- Clinical score, day 3 post-challenge (WNV NY99; individual WNV NY99-challenged mice, 50 mg/kg IP BID 5 days, day 3): 0
- Clinical score, day 4 post-challenge (WNV NY99; individual WNV NY99-challenged mice, 50 mg/kg IP BID 5 days, day 4): 0
- Clinical score, day 5 post-challenge (WNV NY99; individual WNV NY99-challenged mice, 50 mg/kg IP BID 5 days, day 5): 0
- Clinical score, day 6 post-challenge (WNV NY99; individual WNV NY99-challenged mice, 50 mg/kg IP BID 5 days, day 6): 1
- Clinical score, day 7 post-challenge (WNV NY99; individual WNV NY99-challenged mice, 50 mg/kg IP BID 5 days, day 7): 1 and 4
- Clinical score, day 8 post-challenge (WNV NY99; individual WNV NY99-challenged mice, 50 mg/kg IP BID 5 days, day 8): 1 and 4
- Clinical score, day 9 post-challenge (WNV NY99; individual WNV NY99-challenged mice, 50 mg/kg IP BID 5 days, day 9): 4 and 2 and 1
- Clinical score, day 10 post-challenge (WNV NY99; individual WNV NY99-challenged mice, 50 mg/kg IP BID 5 days, day 10): 4 and 1
- Clinical score, day 11 post-challenge (WNV NY99; individual WNV NY99-challenged mice, 50 mg/kg IP BID 5 days, day 11): 1
- Clinical score, day 12 post-challenge (WNV NY99; individual WNV NY99-challenged mice, 50 mg/kg IP BID 5 days, day 12): 0
- Clinical score, day 13 post-challenge (WNV NY99; individual WNV NY99-challenged mice, 50 mg/kg IP BID 5 days, day 13): 0
- Clinical score, day 14 post-challenge (WNV NY99; individual WNV NY99-challenged mice, 50 mg/kg IP BID 5 days, day 14): 0
- survival probability (Kaplan-Meier) versus control (WNV NY99; mouse, in vivo): approximately the same between the two groups
- reduction of West Nile virus titers [4]: approximately 5 logs
- reduction in viral titers compared to DMSO controls (WNV) ([4]; 75 μM, BHK21 cells, 72 hours, Fig 1 legend): ~5 fold
- T1/2 in human liver microsomes [5]: > 1 h
- in vitro intrinsic clearance (CLint) [5]: < 0.023 mL/min/mg protein
- percent of initial concentration remaining at 60 minutes ([5]; 60 min): 85%
- reduction in viral titers compared to DMSO controls (Powassan) [6]: ~5 fold
- reduction of Powassan virus titers [6]: approximately 5 logs
- Average Papp, A to B (Caco-2 cells; A to B): 49.4±1 x 10^−6 cm/s
- Percent Recovery, A to B (Caco-2 cells; A to B): 43%
- Average Papp, B to A (Caco-2 cells; B to A): 49.6±9.5 x 10^−6 cm/s
- Percent Recovery, B to A (Caco-2 cells; B to A): 57%
- log reduction of titers, West Nile virus (subtype Kunjin) [7]: approximately 2 log
- emergence of resistance (viral titers over time) (WNV (Kunjin subtype)): no significant increase in viral titers over time
